According to patent US20240150340A1, “CDK Inhibitors And Their Use As Pharmaceuticals” (Prelude Therapeutics Incorporated, priority 2022, published 2024):

Tests used:
CDK4/Cyclin D1 = target: T1, CDK4/Cyclin D1 (Homo sapiens, UniProt P11802); experiment: CDK4/CyclinD1 Enzymatic Activity Assay (TR-FRET); type: biochemical; conditions: ATP 2 mM final, read-out: CDK4_D1 IC50
T1 construct: purchased ProQinase; host or cells: insect cell
Outline: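 Insect-cell-expressed CDK4/Cyclin D1 (1 nM) with ULight-4E-BP1 (100 nM) and 2 mM ATP in HEPES pH 7.4; 9-dose 3-fold compound series preincubated 20 min, reaction started with 10 mM MgCl2, 45 min at 37° C. Europium anti-P-4E-BP1 TR-FRET read; IC50 from 4-parameter Hill fit.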

CDK2/Cyclin E2 = target: T2, CDK2/Cyclin E2 (Homo sapiens, UniProt P24941); experiment: CDK2/CyclinE2 Enzymatic Activity Assay (TR-FRET); type: biochemical; conditions: ATP 1 mM final, read-out: CDK2_E1 IC50
T2 construct: Recombinant protein complex CDK2/Cyclin E2, expressed from insect cell, was purchased from ProQinase
Outline: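 Recombinant insect-cell CDK2/Cyclin E2 (1 nM) phosphorylated ULight-4E-BP1 (50 nM) with 1 mM ATP in HEPES pH 7.4 buffer, after 20 min compound preincubation; MgCl2 (10 mM) started the 45 min reaction at 37° C. Europium anti-phospho-4E-BP1 TR-FRET read; 9-dose IC50 by 4-parameter fit.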

OVCAR3 p-RB = experiment: pRB ICW Assay in OVCAR3 Cells; type: cell-based; conditions: Homo sapiens, OVCAR-3, incubated with compound for 2 hours
Outline: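 OVCAR3 cells were treated 2 h at 37° C. with a 9-point half-log compound series, duplicate wells, with 10 μM reference compound as maximum inhibition. Fixed, permeabilized cells were stained with anti-phospho-RB plus DRAQ5 and imaged at 700/800 nm (In-Cell Western).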

T1 sequence (P11802 whole entry): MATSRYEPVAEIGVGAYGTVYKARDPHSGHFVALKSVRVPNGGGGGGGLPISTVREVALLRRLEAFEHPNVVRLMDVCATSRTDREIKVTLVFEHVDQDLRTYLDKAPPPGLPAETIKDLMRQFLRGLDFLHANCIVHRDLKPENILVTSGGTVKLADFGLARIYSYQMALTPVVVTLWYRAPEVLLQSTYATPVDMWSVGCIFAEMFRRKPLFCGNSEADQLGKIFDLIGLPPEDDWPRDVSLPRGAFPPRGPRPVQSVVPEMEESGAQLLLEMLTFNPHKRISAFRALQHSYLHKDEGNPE
T1 sequence (P24385 whole entry partner): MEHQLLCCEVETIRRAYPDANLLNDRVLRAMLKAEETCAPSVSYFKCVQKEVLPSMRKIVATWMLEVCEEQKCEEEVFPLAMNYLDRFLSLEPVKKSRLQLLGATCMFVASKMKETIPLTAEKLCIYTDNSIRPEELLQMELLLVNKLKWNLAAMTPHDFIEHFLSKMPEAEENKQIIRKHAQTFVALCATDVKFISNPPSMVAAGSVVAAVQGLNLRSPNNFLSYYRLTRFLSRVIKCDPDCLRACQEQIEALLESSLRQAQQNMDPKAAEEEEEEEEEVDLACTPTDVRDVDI

Compound | IC50 (CDK4/Cyclin D1) | IC50 (CDK2/Cyclin E2) | IC50 (OVCAR3 p-RB)
Cc1sc(-c2nc(N[C@H]3CCN(S(C)(=O)=O)C[C@H]3C)ncc2C(F)(F)F)cc1C(N)=O [Example 52, 2-methyl-5-(2-(((3R,4S)-3-methyl-1-(methylsulfonyl)piperidin-4-yl)amino)-5-(trifluoromethyl)pyrimidin-4-yl)thiophene-3-carboxamide] | 100 to 500 nM | ≤ 100 nM | 100 to 500 nM
Cc1sc(-c2nc(N[C@H]3CCN(S(=O)(=O)c4cn(C)cn4)C[C@H]3C)ncc2C(F)(F)F)cc1C#N [Example 53, 2-methyl-5-(2-(((3R,4S)-3-methyl-1-((1-methyl-1H-imidazol-4-yl)sulfonyl)piperidin-4-yl)amino)-5-(trifluoromethyl)pyrimidin-4-yl)thiophene-3-carbonitrile] | 100 to 500 nM | ≤ 100 nM | > 500 nM
Cc1sc(-c2nc(N[C@H]3CCN(S(C)(=O)=O)C[C@H]3C)ncc2C(F)(F)F)cc1C#N [Example 54, 2-methyl-5-(2-(((3R,4S)-3-methyl-1-(methylsulfonyl)piperidin-4-yl)amino)-5-(trifluoromethyl)pyrimidin-4-yl)thiophene-3-carbonitrile] | > 500 nM | ≤ 100 nM | > 500 nM
Cc1sc(-c2nc(NC3CCN(S(=O)(=O)c4c[nH]cn4)CC3)ncc2C(F)(F)F)cc1C#N [Example 55, 5-(2-((1-((1H-imidazol-4-yl)sulfonyl)piperidin-4-yl)amino)-5-(trifluoromethyl)pyrimidin-4-yl)-2-methylthiophene-3-carbonitrile] | ≤ 100 nM | ≤ 100 nM | 100 to 500 nM
CC(O)c1cnc(-c2nc(NC3CCN(S(=O)(=O)c4cn[nH]c4)CC3)ncc2C(F)(F)F)s1 (stereo not drawn) [Example 56, 1-(2-(2-((1-((1H-pyrazol-4-yl)sulfonyl)piperidin-4-yl)amino)-5-(trifluoromethyl)pyrimidin-4-yl)thiazol-5-yl)ethan-1-ol] | ≤ 100 nM | ≤ 100 nM | ≤ 100 nM
CC(O)c1cnc(-c2nc(NC3CCN(S(=O)(=O)c4c[nH]cn4)CC3)ncc2C(F)(F)F)s1 (stereo not drawn) [Example 57, 1-(2-(2-((1-((1H-imidazol-4-yl)sulfonyl)piperidin-4-yl)amino)-5-(trifluoromethyl)pyrimidin-4-yl)thiazol-5-yl)ethan-1-ol] | ≤ 100 nM | ≤ 100 nM | ≤ 100 nM
Cn1cc(S(=O)(=O)N2CCC(Nc3ncc(C(F)(F)F)c(-c4nccs4)n3)CC2)cn1 [Example 58, N-(1-((1-methyl-1H-pyrazol-4-yl)sulfonyl)piperidin-4-yl)-4-(thiazol-2-yl)-5-(trifluoromethyl)pyrimidin-2-amine] | ≤ 100 nM | ≤ 100 nM | 100 to 500 nM
Cn1cnc(S(=O)(=O)N2CCC(Nc3ncc(C(F)(F)F)c(-c4nccs4)n3)CC2)c1 [Example 59, N-(1-((1-methyl-1H-imidazol-4-yl)sulfonyl)piperidin-4-yl)-4-(thiazol-2-yl)-5-(trifluoromethyl)pyrimidin-2-amine] | ≤ 100 nM | ≤ 100 nM | ≤ 100 nM

Next, values leading:

IC50 (CDK4/Cyclin D1) | IC50 (CDK2/Cyclin E2) | IC50 (OVCAR3 p-RB) | Compound
≤ 100 nM | ≤ 100 nM | ≤ 100 nM | Cn1cnc(S(=O)(=O)N2CCC(Nc3ncc(C(F)(F)F)c(-c4ncc(C(O)C(F)(F)F)s4)n3)CC2)c1 (stereo not drawn) [Example 60, 2,2,2-trifluoro-1-(2-(2-((1-((1-methyl-1H-imidazol-4-yl)sulfonyl)piperidin-4-yl)amino)-5-(trifluoromethyl)pyrimidin-4-yl)thiazol-5-yl)ethan-1-ol]
≤ 100 nM | ≤ 100 nM | ≤ 100 nM | Cn1cc(S(=O)(=O)N2CCC(Nc3ncc(C(F)(F)F)c(-c4ncc(C(O)C(F)(F)F)s4)n3)CC2)cn1 (stereo not drawn) [Example 61, 2,2,2-trifluoro-1-(2-(2-((1-((1-methyl-1H-pyrazol-4-yl)sulfonyl)piperidin-4-yl)amino)-5-(trifluoromethyl)pyrimidin-4-yl)thiazol-5-yl)ethan-1-ol]
≤ 100 nM | ≤ 100 nM | ≤ 100 nM | Cn1cc(S(=O)(=O)N2CCC(Nc3ncc(C(F)(F)F)c(-c4ncc(CC(C)(C)O)s4)n3)CC2)cn1 [Example 62, 2-methyl-1-(2-(2-((1-((1-methyl-1H-pyrazol-4-yl)sulfonyl)piperidin-4-yl)amino)-5-(trifluoromethyl)pyrimidin-4-yl)thiazol-5-yl)propan-2-ol]
≤ 100 nM | ≤ 100 nM | ≤ 100 nM | CC(O)c1cnc(-c2nc(NC3CCN(S(=O)(=O)c4cn(C)cn4)CC3)ncc2C(F)(F)F)s1 (stereo not drawn) [Example 63, 1-(2-(2-((1-((1-methyl-1H-imidazol-4-yl)sulfonyl)piperidin-4-yl)amino)-5-(trifluoromethyl)pyrimidin-4-yl)thiazol-5-yl)ethan-1-ol]
100 to 500 nM | ≤ 100 nM | > 500 nM | Cc1cnc(-c2nc(N[C@H]3CCN(S(=O)(=O)c4cn(C)cn4)C[C@H]3C)ncc2C(F)(F)F)s1 [Example 64, N-((3R,4S)-3-methyl-1-((1-methyl-1H-imidazol-4-yl)sulfonyl)piperidin-4-yl)-4-(5-methylthiazol-2-yl)-5-(trifluoromethyl)pyrimidin-2-amine]
≤ 100 nM | ≤ 100 nM | 100 to 500 nM | Cc1cnc(-c2nc(NC3CCN(S(C)(=O)=O)CC3)ncc2C(F)(F)F)s1 [Example 65, N-(1-(methylsulfonyl)piperidin-4-yl)-4-(5-methylthiazol-2-yl)-5-(trifluoromethyl)pyrimidin-2-amine]
≤ 100 nM | ≤ 100 nM | ≤ 100 nM | Cn1cnc(S(=O)(=O)N2CC[C@@H](Nc3ncc(C(F)(F)F)c(-c4cc(C(N)=O)ns4)n3)[C@H](F)C2)c1 [Example 66, 5-(2-(((3R,4R)-3-fluoro-1-((1-methyl-1H-imidazol-4-yl)sulfonyl)piperidin-4-yl)amino)-5-(trifluoromethyl)pyrimidin-4-yl)isothiazole-3-carboxamide]
≤ 100 nM | ≤ 100 nM | ≤ 100 nM | Cn1cnc(S(=O)(=O)N2CC[C@H](Nc3ncc(C(F)(F)F)c(-c4cc(C(N)=O)ns4)n3)[C@H](F)C2)c1 [Example 67, 5-(2-(((3R,4S)-3-fluoro-1-((1-methyl-1H-imidazol-4-yl)sulfonyl)piperidin-4-yl)amino)-5-(trifluoromethyl)pyrimidin-4-yl)isothiazole-3-carboxamide]
100 to 500 nM | ≤ 100 nM | 100 to 500 nM | CC(O)c1sc(-c2nc(N[C@H]3CCN(S(=O)(=O)c4c[nH]cn4)C[C@H]3C)ncc2C(F)(F)F)cc1C#N (stereo partly drawn) [Example 68, 5-(2-(((3R,4S)-1-((1H-imidazol-4-yl)sulfonyl)-3-methylpiperidin-4-yl)amino)-5-(trifluoromethyl)pyrimidin-4-yl)-2-(1-hydroxyethyl)thiophene-3-carbonitrile]
100 to 500 nM | ≤ 100 nM | ≤ 100 nM | Cn1cc(S(=O)(=O)N2CCC(Nc3ncc(C(F)(F)F)c(-c4cc(C#N)cs4)n3)CC2)cn1 [Example 69, 5-(2-((1-((1-Methyl-1H-pyrazol-4-yl)sulfonyl)piperidin-4-yl)amino)-5-(trifluoromethyl)pyrimidin-4-yl)thiophene-3-carbonitrile]
≤ 100 nM | ≤ 100 nM | ≤ 100 nM | Cc1sc(-c2nc(NC3CCN(S(C)(=O)=O)CC3)ncc2C(F)(F)F)cc1C(N)=O [Example 70, 2-methyl-5-(2-((1-(methylsulfonyl)piperidin-4-yl)amino)-5-(trifluoromethyl)pyrimidin-4-yl)thiophene-3-carboxamide]
